Values of other authors, collected in patent publication US20260335285A1, “A TOPICAL COMPOSITION COMPRISING CHLORINE E6 AND ZINC L-PYROGLUTAMATE” (ZXA GROUP LTD., priority 2022, published 2026).

Details: known in the art; topical

**Q.** With `C=Cc1c(C)c2cc3nc(c(CC(=O)O)c4[nH]c(cc5nc(cc1[nH]2)C(C)=C5CC)c(C)c4C(=O)O)[C@@H](CCC(=O)O)[C@@H]3C` [chlorine e6, (17S,18S)-18-(2-carboxyethyl)-20-(carboxymethyl)-12-ethenyl-7-ethyl-3,8,13,17-tetramethyl-17,18,22,23-tetrahydroporphyrin-2-carboxylic acid] as the molecule, how does the “delivery into the skin” value read?
**A.** inefficient delivery into the skin
